From USRE47351E1 (Gilead Sciences, Inc., priority 1999, dated 2019)
Where two headings read alike, the source gives them in different places.

Tests used:
A2A AdoR [1] = assay: Coronary blood flow and reversal time in open-chest anesthetized pigs
Description: Farm pigs weighing 22-27 kg were used in this study.
Anesthesia was anesthetized with ketamine (20 mg/kg, i.m.) and sodium pentobarbital (15-18 mg/kg i.v.). Anesthesia was maintained with additional sodium pentobarbital (1.5-2 mg/kg, i.v.) every 15-20 minutes. Ventilation was maintained via a tracheotomy using a mixture of room air and 100% O2. Tidal volume, respiratory rate and fraction of O2 in inspired air were adjusted to maintain normal arterial blood gas (ABG) and pH values. […] Lactate Ringers solution was administered via an ear or femoral vein, at 5-7 ml/kg/min after a initial bolus of 300-400 ml. A catheter was inserted into the femoral artery to monitor arterial blood pressure and to obtain ABG samples.
The heart was exposed through a median stemotomy, and suspended in a pericardial cradle. Left ventricular pressure (LVP) was measured with a 5F high fidelity pressure sensitive tip transducer (Millar Instrunents, Houston, Tex.) placed in the left ventricular cavity via the apex and secured with a purse string suture. A segment of the left anterior descending coronary artery (LAD), proximal to the origin of the first diagonal branch, was dissected free of, surrounding tissue. A transit time perivascular flow probe (Transonic Systems Inc., Ithaca, N.Y.) was placed around this segment to measure coronary blood flow (CBF). Proximal to the flow probe a 24 g modified angiocatheter was inserted for intracoronary infusions. […] A2A AdoR agonists were dissolved in DMSO to produce stock concentrations of 1-5 mM, which were diluted in 0.9% saline and infused at rates of 1-1.5 ml/min. The A2A AdoR agonists were administered intracoronary. To maintain blood pressure constant, phenylephrine was administered intravenously. The phenylephrine stock solution (30 mM) was prepared in distilled water.
Prior to initiating the experiment, a 30-minute stabilization period followed the completion of all instrumentation. […] The time to recovery of 50% (t 0.5) and 90% (t0.9) of baseline CBF were recorded. Ten to 15 minutes after CBF returned to pre-drug values a second infusion with a different agonist was started. […] The effect of a maximum of three different agonists was determined in each experiment.

A1 AdoR [2] = target: A1 AdoR (Rattus norvegicus (Rat), UniProt P25099); assay: A-V nodal conduction time (negative dromotropic effect) in rat isolated perfused hearts; conditions: Compound 16 0.1-30 μM, CVT510 100-400 nM
Description: (§1) In experiments in which A1 adenosine receptor-mediated negative dromotropic effect was measured, atrial and ventricular surface electrograms were recorded during constant atrial pacing.
(§2) A1 adenosine receptor-mediated depression of A-V nodal conduction time (negative dromotropic effect) was measured. Atrial and ventricular surface electrograms in rats and His bundle electrogram in guinea pigs, were recorded during constant atrial pacing.
(§3) Hearts were instrumented for continuous recording of coronary perfusion pressure (A2A response) and atrioventricular (A-V) conduction time or S-H interval (A1 response).

A2A receptor = A2A receptor (Sus scrofa, UniProt K9IW67); assay: A2A receptor affinity in pig striatum membrane prep (tritiated ZM 241385 displacement); assay type: binding
Sequence of A2A receptor (K9IW67 1-409): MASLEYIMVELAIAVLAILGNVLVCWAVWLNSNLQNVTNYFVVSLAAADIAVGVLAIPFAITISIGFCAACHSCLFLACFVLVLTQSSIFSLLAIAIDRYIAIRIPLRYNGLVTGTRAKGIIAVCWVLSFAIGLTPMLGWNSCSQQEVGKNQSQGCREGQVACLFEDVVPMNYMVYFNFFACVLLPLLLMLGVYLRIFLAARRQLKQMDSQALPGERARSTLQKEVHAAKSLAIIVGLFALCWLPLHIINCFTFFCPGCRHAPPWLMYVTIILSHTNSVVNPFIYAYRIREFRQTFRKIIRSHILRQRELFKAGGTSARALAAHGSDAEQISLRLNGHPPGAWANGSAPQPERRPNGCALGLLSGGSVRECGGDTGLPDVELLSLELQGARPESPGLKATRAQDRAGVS
Description: Compounds of this invention were assayed to determine their affinity for the A2A receptor in a pig striatum membrane prep. […]. To the pig membranes was added 2 μL of serially diluted DMSO stock solution of the compounds of this invention at concentrations ranging from 10 nM to 100 microM or the control received 2 microL of DMSO alone, then the antagonist ZM 241385 in Tris buffer (50 mM, pH of 7.4) was added to achieve a final concentration of 2 nM. After incubation at 23° C. for 2 h, then the solutions were filtered using a membrane harvester using multiple washing of the membranes (3×). The filter disks were counted in scintillation cocktail to determine the amount of displacement of tritiated ZM displaced by the compounds of this invention. Greater than a 5 point curve was used to generate Ki's and the number of experiments is indicated in the column marked in Table 1 below.

A2A adenosine receptor = A2A adenosine receptor (Rattus norvegicus (Rat), UniProt P30543); assay: Reversal time of coronary vasodilation in rat isolated perfused hearts; conditions: bolus injection
Sequence of A2A adenosine receptor (P30543 whole entry, the tested form may be a part): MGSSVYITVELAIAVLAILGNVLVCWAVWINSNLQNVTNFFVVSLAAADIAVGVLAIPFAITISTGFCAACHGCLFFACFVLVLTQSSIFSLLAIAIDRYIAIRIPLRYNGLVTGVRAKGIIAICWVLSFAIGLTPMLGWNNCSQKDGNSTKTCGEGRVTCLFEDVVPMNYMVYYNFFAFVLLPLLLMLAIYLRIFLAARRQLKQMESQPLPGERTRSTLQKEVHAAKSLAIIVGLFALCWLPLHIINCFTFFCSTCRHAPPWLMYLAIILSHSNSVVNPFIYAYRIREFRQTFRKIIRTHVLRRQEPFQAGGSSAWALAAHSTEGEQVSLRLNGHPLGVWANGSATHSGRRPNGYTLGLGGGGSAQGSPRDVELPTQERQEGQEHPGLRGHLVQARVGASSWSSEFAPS
Description: Adult Sprague Dawley rats of either sex weighing from 230 to 260 grams were used in this study. Animals were anesthetized by peritoneal injection of a cocktail containing ketamine and xylazine (ketamine 100 mg, xylazine 20 mg/ml). The chest was opened and the heart quickly removed. The heart was briefly rinsed in ice-cold Krebs-Henseleit solution (see below), and the aorta cannulated. […] The heart was electrically paced at a fixed cycle length of 340 ms (250 beats/min) using a bipolar electrode place on the left atrium. The electrical stimuli were generated by a Grass stimulator (Model S48, W. Warwick, R.I.) and delivered through a Stimuli Isolation Unit (Model SIU5, Astro-Med, Inc., N.Y.) as square-wave pulses of 3 msec in duration and amplitude of at least twice the threshold intensity.
Coronary perfusion pressure (CPP) was measured using a pressure transducer, connected to the aortic cannula via a T-connector positioned approximately 3 cm above the heart Coronary perfusion pressure was monitored throughout the experiment and recorded either on a chart recorder (Gould Recorder ^2200S) or a computerized recording system (PowerLab/4S, ADInstruments Pty Ltd, Australia). Only hearts with CPP ranging from 60 to 85 mmHg (in the absence of drugs) were used in the study.
Protocol A: Bolus injections. […] The times to 50% (t 0.5) and 90%/o (t 0.9) reversal of the decrease in CPP were measured. Each heart was exposed to a maximum of three vasodilators.
Protocol B: Continuous infusion. […] The times to 50% (t 0.5) and 90% (t 0.9) reversal of the decreases in CPP were measured from the time at which the infusion of the agonists was stopped. […] In addition, the duration of the injection was varied according to the volume of the boluses such as 10, 20 and 30 sec for 100, 200 and 300 μl boluses respectively. […] Boluses of various agonists were injected into the perfusion line of rat isolated perfused hearts (n=4 to 6 for each agonist) and the time to 90% (t0.9) reversal of the decrease in CPP measured.

A2A AdoR [3] = target: A2A AdoR (Rattus norvegicus (Rat), UniProt P30543)
Sequence of A2A AdoR (Rattus norvegicus (Rat), UniProt P30543) (P30543 whole entry): as the sequence (P30543 whole entry, the tested form may be a part) above
From the text: as §3

A2A AdoR [4] = target: A2A AdoR (Cavia porcellus (Guinea pig), UniProt P46616)
Sequence of A2A AdoR (Cavia porcellus (Guinea pig), UniProt P46616) (P46616 whole entry): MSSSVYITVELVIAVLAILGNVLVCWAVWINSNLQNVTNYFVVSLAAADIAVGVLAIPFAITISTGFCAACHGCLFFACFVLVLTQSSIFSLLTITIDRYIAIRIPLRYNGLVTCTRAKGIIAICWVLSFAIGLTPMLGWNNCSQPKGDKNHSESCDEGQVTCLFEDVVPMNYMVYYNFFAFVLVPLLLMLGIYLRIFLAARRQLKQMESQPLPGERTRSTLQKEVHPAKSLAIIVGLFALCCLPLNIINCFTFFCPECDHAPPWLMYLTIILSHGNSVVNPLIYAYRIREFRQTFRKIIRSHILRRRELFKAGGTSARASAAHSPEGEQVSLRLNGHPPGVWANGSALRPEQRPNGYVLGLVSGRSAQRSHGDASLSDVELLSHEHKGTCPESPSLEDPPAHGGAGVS
From the text: as §3

human A2BAdoR = human A2BAdoR (Homo sapiens (Human), UniProt P29275); assay: Competition for [3H]CPX binding sites on HEK-hA2BAdoR membranes; conditions: compound at 10 μM
Sequence of human A2BAdoR (P29275 whole entry): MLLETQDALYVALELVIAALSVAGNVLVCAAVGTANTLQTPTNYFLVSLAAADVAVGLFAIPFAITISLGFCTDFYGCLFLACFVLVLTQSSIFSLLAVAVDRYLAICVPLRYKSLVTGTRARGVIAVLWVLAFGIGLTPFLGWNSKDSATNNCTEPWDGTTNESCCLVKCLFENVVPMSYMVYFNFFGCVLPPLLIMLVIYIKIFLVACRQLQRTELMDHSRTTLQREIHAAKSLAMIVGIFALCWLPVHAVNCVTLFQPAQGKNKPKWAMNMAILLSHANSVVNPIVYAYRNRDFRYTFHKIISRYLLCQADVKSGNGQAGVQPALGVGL
Description: (§4) Cell culture and membrane preparation-PC12 cells were obtained from the American Type Culture Collection and grown in DMEM with 5% fetal bovine serum, 10% horse serum, 0.5 mmol/L L-glutamine, 100 U/mL penicillin, 0.1 mg/mL streptomycin, and 2.5 μg/mL amphotericin. HEK-293 cells stably expressing recombinant human A2BAdoRs (HEK-hA2BAdoR) were grown in DMEM supplemented with 10% fetal bovine serum and 0.5 mg/mL G-418. CHOK1 cells stably expressing the recombinant human A1AdoR (CHO-hA1AdoR) and A3AdoR (CHO-hA3AdoR) were grown as monolayers on 150-mm plastic culture dishes in Ham's F-12 media supplemented with 10% fetal bovine serum in the presence of 0.5 mg/mL G-418. Cells were cultured in an atmosphere of 5% CO2/95% air maintained at 37° C.
(§5) To make membranes, cells were detached from the culture plates into ice-cold 50 mmol/L Tris-HCl buffer (pH7.4). […] The protein concentration of membrane suspensions was determined using the Bradford method (Bio-Rad) with bovine serum as standards. […]
(§6) The affinity ([…]) of various CVT compounds for the A1 and A2A adenosine receptor were determined by their potency to compete for [^3H]CPX (A1) or [^3H]ZM241385 (A2A) binding sites on membranes derived from CHO-hA1AdoR, PC12 or HEK-HA2AAdoR cells. […] The affinity of selected compounds for A2B and A3 receptors were assessed by their potencies to compete for [^3H] […]

human A2AAdoR = human A2AAdoR (Homo sapiens (Human), UniProt P29274); conditions: conclusion of Example 15
Sequence of human A2AAdoR (P29274 whole entry): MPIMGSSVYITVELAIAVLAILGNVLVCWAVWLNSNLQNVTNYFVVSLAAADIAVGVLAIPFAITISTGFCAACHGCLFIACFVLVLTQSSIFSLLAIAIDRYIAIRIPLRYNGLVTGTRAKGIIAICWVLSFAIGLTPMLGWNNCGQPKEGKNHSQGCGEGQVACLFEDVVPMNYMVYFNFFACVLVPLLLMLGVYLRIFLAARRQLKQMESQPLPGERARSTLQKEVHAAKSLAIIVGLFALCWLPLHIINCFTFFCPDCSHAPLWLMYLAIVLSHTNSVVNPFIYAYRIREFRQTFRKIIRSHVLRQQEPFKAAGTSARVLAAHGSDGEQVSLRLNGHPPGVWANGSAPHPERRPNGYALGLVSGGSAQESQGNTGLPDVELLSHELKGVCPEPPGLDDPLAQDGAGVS
Description: Adenosine deaminase was purchased from Boehringer Mannheim Biochemicals Indianapolis, Id., U.S.A). [^3H]ZM241385 (Lot No. 1) was purchased from Tocris Cookson Ltd (Langford, Bristol, UK).
At the end of incubation, bound and free radioligands were separated by filtration through Whatman GF/C glass fiber filters using a Brandel tissue harvester (Gaithersburg, Md.). Triplicate determinations were performed for each concentration of the competing agent.
The affinity ([…]) of various CVT compounds for the A1 and A2A adenosine receptor were determined by their potency to compete for [^3H]CPX (A1) or [^3H]ZM241385 (A2A) binding sites on membranes derived from CHO-hA1AdoR, PC12 or HEK-HA2AAdoR cells. […] The affinity of selected compounds for A2B and A3 receptors were assessed by their potencies to compete for [^3H] […] ABMECA (A3) binding sites on membranes derived from HEK-hA2BAdoR and CHO-hA3AdoR cells, respectively.

human A1AdoR = human A1AdoR (Homo sapiens (Human), UniProt P30542); assay: Competition binding, [3H]DPCPX/[3H]CPX sites on CHO-hA1AdoR cell membranes; conditions: in presence of Gpp(NH)p 100 μM
Sequence of human A1AdoR (P30542 whole entry): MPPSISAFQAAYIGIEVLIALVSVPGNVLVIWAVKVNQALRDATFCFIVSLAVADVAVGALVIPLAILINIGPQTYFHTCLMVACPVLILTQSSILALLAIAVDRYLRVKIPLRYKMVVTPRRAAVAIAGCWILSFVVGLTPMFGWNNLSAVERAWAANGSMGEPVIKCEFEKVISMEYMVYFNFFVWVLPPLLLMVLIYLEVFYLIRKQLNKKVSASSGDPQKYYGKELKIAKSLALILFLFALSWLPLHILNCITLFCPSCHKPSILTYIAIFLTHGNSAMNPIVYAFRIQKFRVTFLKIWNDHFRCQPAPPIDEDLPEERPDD

human A3AdoR = human A3AdoR (Homo sapiens (Human), UniProt P0DMS8); assay: Competition for [125I]ABMECA binding sites on CHO-hA3AdoR membranes; conditions: compound at 10 μM
Sequence of human A3AdoR (P0DMS8 whole entry): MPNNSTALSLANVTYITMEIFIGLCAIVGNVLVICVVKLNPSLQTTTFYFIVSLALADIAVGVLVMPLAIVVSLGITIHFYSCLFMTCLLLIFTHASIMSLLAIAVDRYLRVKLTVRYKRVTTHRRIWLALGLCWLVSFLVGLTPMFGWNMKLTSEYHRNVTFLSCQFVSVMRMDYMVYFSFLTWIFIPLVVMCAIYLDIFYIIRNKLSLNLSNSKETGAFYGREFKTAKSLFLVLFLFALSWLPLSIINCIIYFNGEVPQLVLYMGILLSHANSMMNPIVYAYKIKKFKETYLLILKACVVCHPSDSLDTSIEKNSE
Description: as §4, §5, §6

A1 AdoR [5] = target: A1 AdoR (Cavia porcellus (Guinea pig), UniProt P47745)
Sequence of A1 AdoR (Cavia porcellus (Guinea pig), UniProt P47745) (P47745 whole entry): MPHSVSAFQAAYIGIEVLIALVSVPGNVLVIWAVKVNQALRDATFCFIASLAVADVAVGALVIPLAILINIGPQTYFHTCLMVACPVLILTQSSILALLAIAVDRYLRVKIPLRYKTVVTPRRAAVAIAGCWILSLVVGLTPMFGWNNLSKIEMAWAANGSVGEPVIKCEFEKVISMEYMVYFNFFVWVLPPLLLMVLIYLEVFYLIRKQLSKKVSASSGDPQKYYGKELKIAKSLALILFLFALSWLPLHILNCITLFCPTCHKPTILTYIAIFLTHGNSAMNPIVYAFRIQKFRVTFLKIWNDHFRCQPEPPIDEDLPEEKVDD
Description: as §1, §2, §3

[6] = pig striatal membranes, displacement of tritiated ZM 241385 (2 nM), 23° C. 2 h; read-out: A2a Ki

Sequence of A1 AdoR (Rattus norvegicus (Rat), UniProt P25099) (P25099 whole entry, the tested form may be a part): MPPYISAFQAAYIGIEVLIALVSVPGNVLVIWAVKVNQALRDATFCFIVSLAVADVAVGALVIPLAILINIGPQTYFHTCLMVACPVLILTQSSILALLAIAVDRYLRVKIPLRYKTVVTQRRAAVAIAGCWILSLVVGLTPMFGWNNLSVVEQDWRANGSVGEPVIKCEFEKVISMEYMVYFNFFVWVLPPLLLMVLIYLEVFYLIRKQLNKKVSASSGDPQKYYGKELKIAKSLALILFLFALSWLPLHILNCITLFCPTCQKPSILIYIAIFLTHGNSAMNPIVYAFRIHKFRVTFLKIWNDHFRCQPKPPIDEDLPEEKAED

## CCNC(=O)[C@H]1O[C@@H](n2cnc3c(N)nc(NCCc4ccc(CCC(=O)O)cc4)nc32)[C@H](O)[C@@H]1O [CGS21680]
A2A AdoR [1]; 2 μg/kg/min
  t 0.5 (min), time to 50% reversal of the increase in coronary blood flow: 9.7 ± 0.8 min
  t 0.9 (min), time to 90% reversal of the increase in coronary blood flow: 21.4 ± 0.8 min

## OC[C@H]1O[C@@H](n2cnc3c(N[C@@H]4CCOC4)ncnc32)[C@H](O)[C@@H]1O [CVT510, 2-{6-[((3R)oxolan-3-yl)amino]purin-9-yl}(4S,3R,5R)-(hydroxymethyl)oxolane-3,4-diol, reference compound]
A1 AdoR [2]
  Effect on A-V nodal conduction time: significantly prolonged

## CCOC(=O)c1cnn(-c2nc(N)c3ncn([C@@H]4O[C@H](CO)[C@@H](O)[C@H]4O)c3n2)c1 [Compound 12, Ethyl 1-{9-[(4S,2R,3R,5R)-3,4-dihydroxy-5-(hydroxymethyl)oxolan-2-yl]-6-aminopurin-2-yl}pyrazole-4-carboxylate]
A2A receptor; [6]
  Ki: 0.01 to 1 µM
A2A adenosine receptor
  t 0.5 (min), time to 50% reversal of the increase in coronary conductance: 14.83 ± 2.1 min
  t 0.9 (min), time to 90% reversal of the increase in coronary conductance: 15.0 ± 0.8 min

## COc1ccc(-c2cnn(-c3nc(N)c4ncn(C5O[C@H](CO)[C@@H](O)[C@H]5O)c4n3)c2)cc1 (stereo partly drawn) [Compound 14, (4S,2R,3R,5R)-2-{6-Amino-2-[4-(4-metboxyphenyl)pyrazolyl]purin-9-yl}-5-(hydroxymethyl)oxolane-3,4-diol]
A2A receptor; [6]
  Ki: 1 to 10 µM

## Cc1ccc(-c2cnn(-c3nc(N)c4ncn(C5O[C@H](CO)[C@@H](O)[C@H]5O)c4n3)c2)cc1 (stereo partly drawn) [Compound 15]
A2A receptor; [6]
  Ki: 1 to 10 µM

## CNC(=O)c1cnn(-c2nc(N)c3ncn(C4O[C@H](CO)[C@@H](O)[C@H]4O)c3n2)c1 (stereo partly drawn) [Compound 16, (1-{9-[(4S,2R,3R,5R)-3,4-dihydroxy-5-(bydroxymethyl)oxolan-2-yl]-6-aminopurin-2-yl}pyrazol-4-yl)-N-methylcarboxamide]
A2A receptor; read-out: A2a Ki; pig striatal membranes, displacement of tritiated ZM 241385 (2 nM), 23° C. 2 h
  Ki: 1 to 10 µM
A2A AdoR [3]
  EC50: 0.0064 ± 0.0006 µM
A2A AdoR [4]
  EC50: 0.0186 ± 0.006 µM
Human A2BAdoR
  Decrease of specific binding of [3H]CPX (HEK-hA2BAdoR): 20%
Human A2AAdoR
  A2A affinity in words: low affinity A2A agonist
Human A1AdoR; read-out: Binding Affinity Ki, CHO-hA1AR
  Ki: > 16.5 µM
Human A1AdoR; read-out: Binding Affinity pKi ± SEM, CHO-hA1AR (converted)
  Ki: 25.7 µM
Human A3AdoR
  Decrease of specific binding of [125I]IBMECA (CHO-hA3AdoR): 22%
A1 AdoR [5]
  EC50: 4 ± 2.3 µM
A1 AdoR [2]
  Effect on A-V nodal conduction time: did not prolong

## Nc1nc(-n2cc(C(=O)O)cn2)nc2c1ncn2[C@@H]1O[C@H](CO)[C@@H](O)[C@H]1O [Compound 17, 1-{9-[(4S,2R,3R,5R)-3,4-dihydroxy-5-(hydroxymethyl)oxolan-2-yl]-6-aminopurin-2-yl}pyrazole-4-carboxylic acid]
A2A receptor; [6]
  Ki: > 100 µM

## CN(C)C(=O)c1cnn(-c2nc(N)c3ncn([C@@H]4O[C@H](CO)[C@@H](O)[C@H]4O)c3n2)c1 [Compound 18, (1-{9-[(4S,2R,3R,5R)-3,4-dihydroxy-5-(hydroxymethyl)oxolan-2-yl]-6-aminopurin-2-yl}pyrazol-4-yl)-N,N-dimethylcarboxamide]
A2A receptor; [6]
  Ki: 0.01 to 1 µM

## CCNC(=O)c1cnn(-c2nc(N)c3ncn(C4O[C@H](CO)[C@@H](O)[C@H]4O)c3n2)c1 (stereo partly drawn) [Compound 19, (1-{9-[(4S,2R,3R,5R)-3,4-dihydroxy-5-(hydrozymethyl)oxolan-2-yl]-6-aminopurin-2-yl}pyrazol-4-yl)-N-ethylcarboxamide]
A2A receptor; [6]
  Ki: 0.01 to 1 µM

## NC(=O)c1cnn(-c2nc(N)c3ncn([C@@H]4O[C@H](CO)[C@@H](O)[C@H]4O)c3n2)c1 [Compound 20, 1-{9-[(4S,2R,3R,5R)-3,4-dihydroxy-5-(hydroxymethyl)oxolan-2-yl]-6-aminopurin-2-yl}pyrazole-4-carboxamide]
A2A receptor; [6]
  Ki: 0.01 to 1 µM

## Nc1nc(-n2cc(C(=O)NC3CCCC3)cn2)nc2c1ncn2[C@@H]1O[C@H](CO)[C@@H](O)[C@H]1O [Compound 21, (1-{9-[(4S,2R,3R,5R)-3,4-dihydroxy-5-(hydroxymethyl)oxolan-2-yl]-6-aminopurin-2-yl}pyrazol-4-yl)-N-(cyclopentyl)carboxamide]
A2A receptor; [6]
  Ki: 0.01 to 1 µM

## Nc1nc(-n2cc(C(=O)NCc3ccc(Cl)cc3)cn2)nc2c1ncn2[C@@H]1O[C@H](CO)[C@@H](O)[C@H]1O [Compound 22, (1-{9-[(4S,2R,3R,5R)-3,4-dihydroxy-5-(hydroxymethyl)oxolan-2-yl]-6-aminopurin-2yl}pyrazol-4yl)-N-[(4-chlorophenyl)methyl]carboxamide]
A2A receptor; [6]
  Ki: 0.01 to 1 µM

## CCCCC#Cc1nc(N)c2ncn([C@@H]3O[C@H](C(=O)NCC)[C@@H](O)[C@H]3O)c2n1 [HENECA, N-ethyl-1′-deoxy-1′-(6-amino-2-hexynyl-9H-purin9-yl)-beta-D-ribofuranuronamide]
A2A adenosine receptor
  t 0.5 (min), time to 50% reversal of the increase in coronary conductance: 28.6 ± 1.1 min
  t 0.9 (min), time to 90% reversal of the increase in coronary conductance: 32.8 ± 3.1 min

## Nc1nc(N/N=C/C2CCCCC2)nc2c1ncn2[C@@H]1O[C@H](CO)[C@@H](O)[C@H]1O [WRC-0470, 2-cyclohexylmethylidenehydrazino-adenosine]
A2A AdoR [1]; 1 μg/kg/min
  t 0.5 (min), time to 50% reversal of the increase in coronary blood flow: 9.5 ± 0.8 min
  t 0.9 (min), time to 90% reversal of the increase in coronary blood flow: 22.5 ± 1.6 min

## CCCCCCC#Cc1nc(N)c2ncn([C@@H]3O[C@H](CO)[C@@H](O)[C@H]3O)c2n1 [YT-146, 2-alkynyladenosine]
A2A adenosine receptor
  t 0.5 (min), time to 50% reversal of the increase in coronary conductance: 17.7 ± 1.0 min
  t 0.9 (min), time to 90% reversal of the increase in coronary conductance: 28.5 ± 4.0 min
A2A AdoR [1]; 1 μg/kg/min
  t 0.5 (min), time to 50% reversal of the increase in coronary blood flow: 17.8 ± 3.4 min
  t 0.9 (min), time to 90% reversal of the increase in coronary blood flow: 32.9 ± 5.6 min
A2A AdoR [1]; 1 μg/kg/min intracoronary infusion
  CBF (“Fold Increase”): 3.44 ± 0.47 fold
